Data as given in PMC4438668, “Quantitative High-Throughput Identification of Drugs as Modulators of Human Constitutive Androstane Receptor” (Scientific Reports, 2015).

Assays:
[1] = target: T1, EYFP-hCAR (Homo sapiens, UniProt Q14994); test: Nuclear translocation of Ad/EYFP-hCAR in human primary hepatocytes; format: cell-based; details: HPH, 1 mM
T1 construct: expressed in transfected cells; host or cells: human primary hepatocytes infected with Ad/EYFP-hCAR
T1 sequence (Q14994 1-348 isoform Q14994-2): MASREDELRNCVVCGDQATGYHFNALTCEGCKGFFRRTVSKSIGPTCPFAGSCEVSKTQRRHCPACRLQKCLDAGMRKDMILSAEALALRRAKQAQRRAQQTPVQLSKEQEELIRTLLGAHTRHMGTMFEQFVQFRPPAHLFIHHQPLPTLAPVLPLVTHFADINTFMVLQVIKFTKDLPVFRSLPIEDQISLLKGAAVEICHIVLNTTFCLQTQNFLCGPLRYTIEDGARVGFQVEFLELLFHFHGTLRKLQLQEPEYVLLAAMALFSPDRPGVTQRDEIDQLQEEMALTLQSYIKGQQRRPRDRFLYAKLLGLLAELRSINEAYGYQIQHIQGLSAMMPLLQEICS
Description: A recombinant adenovirus expressing enhanced yellow fluorescent protein-tagged hCAR (Ad/EYFP-hCAR) was generated as described previously. Hepatocytes cultured in 96-well collagen-coated plates in serum free Williams’ E medium were infected with Ad/EFYP-hCAR (1 μl/well) for 12 h before treatment with the vehicle control, DMSO (0.1%), PB (1 mM), and selected compounds for another 8 h. Subcellular localization of hCAR was visualized using a Nikon (Tokyo, Japan) C1-LU3 instrument based on an inverted Nikon Eclipse TE2000 microscope.

[2] = target: T2, human CAR (hCAR) (Homo sapiens, UniProt Q14994); test: hCAR luciferase reporter qHTS, agonist mode (HepG2-CYP2B6-hCAR cells, PK11195 co-treatment); details: for EC50 / Follow-up Confirmation Efficacy / Primary Screen Efficacy: agonist mode; for Follow-up Confirmation Efficacy: relative to CITCO (100%); for Primary Screen Efficacy: relative to CITCO Emax (100%); for Identified as hCAR agonist in the qHTS: primary qHTS of 2816 NPC compounds
T2 sequence (Q14994 1-348 isoform Q14994-2): T1 sequence (Q14994 1-348 isoform Q14994-2)
Description: The generated stable cell line, namely HepG2-CYP2B6-hCAR, was used to identify hCAR modulators in a qHTS platform. Assays were run in both agonist and antagonist modes. In brief, HepG2-CYP2B6-hCAR cells were dispensed at 2,500 cells/well in 1,536-well plates (Greiner Bio-One North America, Monroe, NC) using a Multidrop Combi (Thermo Fisher Scientific Inc., Waltham, MA). […] Each NPC compound was tested at 8 concentrations ranging from 0.6 nM to 38.3 μM. The assays were incubated at 37 °C for 24 h followed by the addition of 4 μl of the ONE-Glo luciferase reagent (Promega, Madision, WI). The assay plates were incubated at room temperature for 20 min and luminescence intensity was quantified using a ViewLux plate reader (PerkinElmer, Shelton, CT).
(§1) Concentration-response titration points for each compound were then fitted to the Hill equation, yielding half-maximal inhibition (IC50) or activation (EC50) and maximal response (efficacy) values. Compounds from the primary qHTS screen were classified into four major curve classes according to quality of curve fit, potency and efficacy. Class 1.1, 1.2, 2.1, and 2.2 curves were high-quality and thus high-confidence concentration-response curves (CRCs). […] All other curve classes (including those curves with single point activity) were deemed inconclusive. […] Follow-up studies were performed using a new aliquot of samples to confirm sample integrity and assay reproducibility.
These compounds were prepared in 1536-well compound plates at 11-point 3-fold dilution titrations in DMSO, with final concentrations ranging from 0.6 nM to 38.3 μM. All of these compounds were retested in both HepG2-CYP2B6-hCAR and cell viability assays.

[3] = target: T2, human CAR (hCAR); test: hCAR luciferase reporter qHTS, antagonist mode (HepG2-CYP2B6-hCAR cells, CITCO co-treatment); details: for Identified as hCAR antagonist/deactivator in the qHTS: primary qHTS of 2816 NPC compounds;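 as to all read-outs here: stable HepG2 line carrying hCAR plus a CYP2B6 promoter (PBREM/XREM) luciferase reporter, 1536-well format, 24 h compound exposure at 37 °C, then luminescence read with ONE-Glo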
Description: The pEF6/V5-hCAR expression plasmid and the pGL4.17[luc2/Neo]-CYP2B6-2.2kb construct containing both the PBREM and XREM[40], were co-transfected in HepG2 cells using lipofectamine 2000 reagents (Life Technologies) following the manufacturer’s instruction. Dulbecco’s Modified Eagle Medium (DMEM) containing 10% FBS, 100 U/ml penicillin, 100 μg/ml streptomycin, G418 (0.6-1 mg/ml) and blasticidin (10 μg/ml) were used for the selection of colonies containing a mixed population of drug resistant cells. Subsequently, these cells were transferred to collagen-coated 48-well plates and continually cultured in the same media. Single colony containing both plasmids was selected and functionally verified.
The generated stable cell line, namely HepG2-CYP2B6-hCAR, was used to identify hCAR modulators in a qHTS platform. Assays were run in both agonist and antagonist modes. In brief, HepG2-CYP2B6-hCAR cells were dispensed at 2,500 cells/well in 1,536-well plates (Greiner Bio-One North America, Monroe, NC) using a Multidrop Combi (Thermo Fisher Scientific Inc., Waltham, MA). […] The assays were incubated at 37 °C for 24 h followed by the addition of 4 μl of the ONE-Glo luciferase reagent (Promega, Madision, WI). The assay plates were incubated at room temperature for 20 min and luminescence intensity was quantified using a ViewLux plate reader (PerkinElmer, Shelton, CT).
as §1
All of these compounds were retested in both HepG2-CYP2B6-hCAR and cell viability assays.

[4] = system: CYP3A4; test: CYP3A4 mRNA expression in HPH (real-time PCR); format: cell-based, human; details: HPH, 24 h, vs vehicle control (0.1% DMSO)
Description: (§2) HPH were isolated from human liver specimens by a modification of the two-step collagenase digestion method as described previously[43] or obtained from Bioreclamation In Vitro Technologies (Baltimore, MD). Fresh HPH were seeded at 1.5 × 10^6, 7.5 × 10^5 or 4.7 × 10^4 cells/well in 6-well, 12-well, or 96-well collagen coated plates, respectively. Hepatocytes were cultured for 36 h at 37 °C before treatment with specified compounds for another 24 or 72 h for detection of mRNA or protein expression in the 6-well and 12-well plates.
(§3) Total RNA was isolated from treated hepatocytes using the TRIzol® reagent and reverse transcribed using a High Capacity cDNA Archive Kit (Applied Biosystems, Foster City, CA) following the manufacturers’ instructions. CYP2B6 and CYP3A4 mRNA expression were normalized against that of GAPDH. Real-time PCR assays were performed in 96-well optical plates on an ABI Prism 7000 Sequence Detection System with SYBR Green PCR Master Mix. […] Induction values were calculated using the equation: Fold = 2ΔΔCt, where ΔCt represents the differences in cycle threshold numbers between CYP2B6 or CYP3A4 and GAPDH, and ΔΔCt represents the relative change in these differences between control and treatment groups.

[5] = system: HepG2-CYP2B6-hCAR cells; test: Cell viability assay (CellTiter-Glo ATP quantitation); format: cell-based, human; set-up: key to Cytotoxicity (activity call): Inactive: considered inactive if efficacy is less than 30%; details: 24 h
Description: The potential cytotoxicity of the NPC compounds in HepG2-CYP2B6-hCAR cells was measured using a luciferase-coupled ATP quantitation assay (CellTiter-Glo viability assay, Promega). The change of intracellular ATP content indicates the number of metabolically competent cells. The cells were seeded at 2,500 cells/5 μl in 1536-well plates and were exposed to each test compound at concentrations and treatment duration as previously mentioned. The assay plates were incubated for 24 h at 37 °C, followed by the addition of 4 μl/well of CellTiter-Glo reagent. After 30 min incubation at RT, the luminescence intensity of the plates was measured using a ViewLux plate reader.

[6] = target: T3, hPXR (Homo sapiens, UniProt O75469); test: Transient hPXR luciferase assay in HepG2 cells (CYP2B6-2.2 kb reporter); format: cell-based; details: HepG2, 24 h, in the presence or absence of rifampicin (10 μM)
T3 construct: expressed in transfected cells; host or cells: HepG2 (transient transfection)
T3 sequence (O75469 1-434): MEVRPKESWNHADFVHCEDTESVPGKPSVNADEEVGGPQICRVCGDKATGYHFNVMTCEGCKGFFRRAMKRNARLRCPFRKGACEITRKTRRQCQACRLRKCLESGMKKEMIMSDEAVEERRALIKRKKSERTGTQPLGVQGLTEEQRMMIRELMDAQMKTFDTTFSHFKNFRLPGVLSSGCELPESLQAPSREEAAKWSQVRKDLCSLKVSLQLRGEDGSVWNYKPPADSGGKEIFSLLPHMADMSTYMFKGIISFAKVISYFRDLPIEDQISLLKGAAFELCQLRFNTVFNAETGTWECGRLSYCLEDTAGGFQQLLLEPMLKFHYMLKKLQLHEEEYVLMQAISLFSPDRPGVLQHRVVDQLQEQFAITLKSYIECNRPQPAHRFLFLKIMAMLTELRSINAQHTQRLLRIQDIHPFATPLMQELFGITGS
Description: HepG2 cells cultured in a 24-well plate were co-transfected with the CYP2B6-2.2 kb reporter and hPXR expression vectors using a Lipofectamine® 2000 Transfection Kit (Life Technologies) following the manufacturer’s instruction. […] Cell lysates were assayed for firefly luciferase activities normalized against the activities of co-transfected Renilla luciferase using a Dual-Luciferase Kit (Promega). Data were represented as mean±SD of three individual transfections.

[7] = system: CYP2B6; test: CYP2B6 mRNA expression in HPH (real-time PCR); details: HPH, 24 h, vs vehicle control (0.1% DMSO)
Description: as §2, §3

[8] = Follow-up Confirmation Potency (EC50), follow-up cherry-pick, 11-point titration
[9] = Primary Screen Potency (EC50), primary qHTS, 2.5 μM PK11195, 24 h
[10] = Follow-up Confirmation Potency (IC50), antagonist mode, follow-up cherry-pick, 11-point titration
[11] = Primary Screen Potency (IC50), antagonist mode, primary qHTS, 0.1 μM CITCO, 24 h
[12] = antagonist mode, follow-up cherry-pick, relative to PK11195 (100%)

CCC1(c2ccccc2)C(=O)NC(=O)NC1=O [PB, phenobarbital]
Nuclear localization of EYFP-hCAR [1]: 99%

CC(COc1ccccc1)N(CCCl)Cc1ccccc1 (centres unmarked) [Phenoxybenzamine]
EC50 [2, 8]: 12 µM
EC50 [2, 9]: 9.5 µM
Follow-up Confirmation Efficacy ([2]; follow-up cherry-pick): 49%
Primary Screen Efficacy ([2]; primary qHTS): 57%

CC[C@@]1(O)C(=O)OCc2c1cc1n(c2=O)Cc2cc3c(CN(C)C)c(O)ccc3nc2-1 [Topotecan]
IC50 [3, 10]: 0.36 µM
IC50 [3, 11]: 0.06 µM
Follow-up Confirmation Efficacy [3, 12]: -109%
Primary Screen Efficacy ([3]; antagonist mode, primary qHTS, relative to PK11195 (100%)): -94%
Effect on CYP3A4 mRNA expression [4]: negligible effect
Cytotoxicity (activity call) [5]: Inactive

CCCCNc1c(C(=O)OCC)c(C)nc2c1cnn2CC [Tracazolate]
EC50 [2, 8]: 24 µM
EC50 [2, 9]: 17 µM
Follow-up Confirmation Efficacy ([2]; follow-up cherry-pick): 101%
Primary Screen Efficacy ([2]; primary qHTS): 27%

O=c1[nH]c(=O)n([C@H]2C[C@H](O)[C@@H](CO)O2)cc1C(F)(F)F [Trifluridine]
IC50 [3, 10]: 4.5 µM
IC50 [3, 11]: 6.7 µM
Follow-up Confirmation Efficacy [3, 12]: -73%
Cytotoxicity (activity call) [5]: Inactive
Effect on basal and RIF-induced PXR activity [6]: no effects on either basal or RIF-induced hPXR activation
Effect on CYP2B6 mRNA expression [7]: moderately induced

Clc1ccc(Nc2nnc(Cc3ccncc3)c3ccccc23)cc1 [Vatalanib]
Effect on CYP3A4 mRNA expression [4]: markedly enhanced
EC50 [2, 8]: 12.6 µM
EC50 [2, 9]: 10.7 µM
Follow-up Confirmation Efficacy ([2]; follow-up cherry-pick): 97%
Primary Screen Efficacy ([2]; primary qHTS): 68%
Effect on CYP2B6 mRNA expression [7]: significantly induced

Clc1ccccc1C(c1ccccc1)(c1ccccc1)n1ccnc1 [clotrimazole]
Identified as hCAR antagonist/deactivator in the qHTS [3]: recognized in the current study

COC(=O)Nc1nc2ccc(C(=O)c3cccs3)cc2[nH]1 [nocodazole]
Identified as hCAR agonist in the qHTS [2]: hCAR agonist from the current study

O=C1OC(c2ccc(O)cc2)(c2ccc(O)cc2)c2ccccc21 [phenolphthalein]
Identified as hCAR antagonist/deactivator in the qHTS [3]: recognized in the current study

Cc1cccc(N(C)C(=S)Oc2ccc3ccccc3c2)c1 [tolnaftate]
Identified as hCAR agonist in the qHTS [2]: agonists identified

O=C(Nc1ccc(Cl)cc1)Nc1ccc(Cl)c(Cl)c1 [triclocarban]
Identified as hCAR agonist in the qHTS [2]: agonists identified
